Source: ChEMBL document CHEMBL1201862, “PubChem BioAssay data set” (2004)
Activity calls are given as the source filed them.

What was measured:
Orexin receptor type 2 [1] = target: T1, Orexin receptor type 2 (Homo sapiens, UniProt O43614); test: Counterscreen assay for antagonists of the orexin 1 receptor (OX1R; HCRTR1): Homogeneous Time Resolved Fluorescence (HTRF)-based cell-based dose response assay for antagonists of the orexin 2 receptor (OX2R; HCRTR2), run by assay provider.; type: functional
T1 sequence (O43614 whole entry): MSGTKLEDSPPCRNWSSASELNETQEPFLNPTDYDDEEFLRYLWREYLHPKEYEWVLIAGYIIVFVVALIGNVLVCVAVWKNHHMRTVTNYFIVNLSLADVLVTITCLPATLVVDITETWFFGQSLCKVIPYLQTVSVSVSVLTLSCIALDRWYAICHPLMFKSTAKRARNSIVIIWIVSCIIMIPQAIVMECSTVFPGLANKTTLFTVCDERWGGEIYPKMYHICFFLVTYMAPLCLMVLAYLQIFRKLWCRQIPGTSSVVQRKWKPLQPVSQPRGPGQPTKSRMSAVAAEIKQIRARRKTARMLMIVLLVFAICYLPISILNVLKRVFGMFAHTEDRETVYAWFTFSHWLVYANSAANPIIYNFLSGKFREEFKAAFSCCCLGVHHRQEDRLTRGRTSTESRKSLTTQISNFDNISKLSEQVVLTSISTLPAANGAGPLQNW

[2] = (§1) Counterscreen for antagonists of the orexin 1 receptor (OX1R; HCRTR1): Fluorescence-based cell-based high throughput dose response assay to identify antagonists of the parental CHO cell line. [Related pubchem assays (depositor defined):AID434989, AID435008, AID463079, AID485270, AID492963, AID492964, AID492965, AID493232, AID504699, AID504701]; type: functional
Orexin receptor type 2 [3] = target: T1, Orexin receptor type 2; test: Counterscreen assay for antagonists of the orexin 1 receptor (OX1R; HCRTR1): Fluorescence-based cell-based dose response assay for antagonists of the orexin 2 receptor (OX2R; HCRTR2), run by assay provider.; type: functional
CHO-K1 = test: as §1, with “Homogeneous time resolved fluorescence (HTRF)-based” for “Fluorescence-based”, “cell-based” for “cell-based high throughput”, “CHO-K1” for “CHO”; type: functional; conditions: Cricetulus griseus;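 also: potency for inhibition of ATP-stimulated IP1 production as antagonists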
[4] = target: T2, Orexin/Hypocretin receptor type 1 (Homo sapiens, UniProt O43613); test: (§2) Fluorescence-based cell-based high throughput dose response assay for antagonists of the orexin 1 receptor (OX1R; HCRTR1). [Related pubchem assays (depositor defined):AID434989, AID435008, AID463079, AID485270, AID492963, AID492964, AID492965, AID493232, AID504717, AID504718]; type: functional
T2 sequence (O43613 whole entry): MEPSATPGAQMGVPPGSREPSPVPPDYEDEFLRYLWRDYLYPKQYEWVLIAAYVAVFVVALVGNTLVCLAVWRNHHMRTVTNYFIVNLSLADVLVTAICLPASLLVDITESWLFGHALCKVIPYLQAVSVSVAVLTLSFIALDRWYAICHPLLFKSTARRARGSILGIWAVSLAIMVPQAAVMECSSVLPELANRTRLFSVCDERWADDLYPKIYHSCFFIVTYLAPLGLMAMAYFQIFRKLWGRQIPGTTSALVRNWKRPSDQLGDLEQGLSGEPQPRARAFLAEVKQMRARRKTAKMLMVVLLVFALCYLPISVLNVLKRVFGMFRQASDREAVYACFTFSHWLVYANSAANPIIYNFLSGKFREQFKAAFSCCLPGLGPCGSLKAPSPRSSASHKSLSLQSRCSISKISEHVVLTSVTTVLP

[5] = target: T2, Orexin/Hypocretin receptor type 1; test: as §2, with “Homogeneous Time Resolved Fluorescence (HTRF)-based” for “Fluorescence-based”; type: functional
[6] = target: T3, Carboxy-terminal domain RNA polymerase II polypeptide A small phosphatase 1 (Homo sapiens, UniProt Q9GZU7); test: CTDSP1 inhibitors, concentration-response, biochemical, absorbance readout, ultra-high-throughput screen actives (AID 540297); type: functional
T3 sequence (Q9GZU7 whole entry): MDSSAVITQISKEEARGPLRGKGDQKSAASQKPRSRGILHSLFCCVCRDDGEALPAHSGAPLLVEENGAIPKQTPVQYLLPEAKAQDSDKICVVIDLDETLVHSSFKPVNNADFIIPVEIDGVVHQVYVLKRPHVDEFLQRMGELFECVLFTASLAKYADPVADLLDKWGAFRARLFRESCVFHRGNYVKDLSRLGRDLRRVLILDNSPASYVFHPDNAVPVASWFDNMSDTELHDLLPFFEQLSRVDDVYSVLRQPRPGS

[7] = cAMP pathway inhibition in counterscreen cell line – TR-FRET cAMP detection, counter-screen for MC4R biased antagonist project, dose response (AID 602305); type: functional, cell-based;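 also: U2OS cells stimulated with forskolin near its EC80 as the cAMP inducer; potency is for inhibition of forskolin-stimulated cAMP signaling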
P388/ADR = test: cells; type: functional; conditions: Mus musculus
P388 = test: cells; type: functional; conditions: Mus musculus
SN12K1 = test: cells; type: functional; conditions: Homo sapiens
Melanocortin receptor 4 = Melanocortin receptor 4 (Homo sapiens, UniProt P32245); test: inhibitors of MC4R cAMP signaling – cell-based, TR-FRET, biased antagonists, dose response (AID 602298); type: functional;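 also: antagonist potency against agonist-stimulated cAMP production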
Insulin-degrading enzyme [8] = target: T4, Insulin-degrading enzyme (Homo sapiens, UniProt P14735); test: cellular IDE activation of Abeta substrate cleavage – fluorescence polarization, HEK cells, dose response (AID 588439); type: functional, cell-based
T4 sequence (P14735 whole entry): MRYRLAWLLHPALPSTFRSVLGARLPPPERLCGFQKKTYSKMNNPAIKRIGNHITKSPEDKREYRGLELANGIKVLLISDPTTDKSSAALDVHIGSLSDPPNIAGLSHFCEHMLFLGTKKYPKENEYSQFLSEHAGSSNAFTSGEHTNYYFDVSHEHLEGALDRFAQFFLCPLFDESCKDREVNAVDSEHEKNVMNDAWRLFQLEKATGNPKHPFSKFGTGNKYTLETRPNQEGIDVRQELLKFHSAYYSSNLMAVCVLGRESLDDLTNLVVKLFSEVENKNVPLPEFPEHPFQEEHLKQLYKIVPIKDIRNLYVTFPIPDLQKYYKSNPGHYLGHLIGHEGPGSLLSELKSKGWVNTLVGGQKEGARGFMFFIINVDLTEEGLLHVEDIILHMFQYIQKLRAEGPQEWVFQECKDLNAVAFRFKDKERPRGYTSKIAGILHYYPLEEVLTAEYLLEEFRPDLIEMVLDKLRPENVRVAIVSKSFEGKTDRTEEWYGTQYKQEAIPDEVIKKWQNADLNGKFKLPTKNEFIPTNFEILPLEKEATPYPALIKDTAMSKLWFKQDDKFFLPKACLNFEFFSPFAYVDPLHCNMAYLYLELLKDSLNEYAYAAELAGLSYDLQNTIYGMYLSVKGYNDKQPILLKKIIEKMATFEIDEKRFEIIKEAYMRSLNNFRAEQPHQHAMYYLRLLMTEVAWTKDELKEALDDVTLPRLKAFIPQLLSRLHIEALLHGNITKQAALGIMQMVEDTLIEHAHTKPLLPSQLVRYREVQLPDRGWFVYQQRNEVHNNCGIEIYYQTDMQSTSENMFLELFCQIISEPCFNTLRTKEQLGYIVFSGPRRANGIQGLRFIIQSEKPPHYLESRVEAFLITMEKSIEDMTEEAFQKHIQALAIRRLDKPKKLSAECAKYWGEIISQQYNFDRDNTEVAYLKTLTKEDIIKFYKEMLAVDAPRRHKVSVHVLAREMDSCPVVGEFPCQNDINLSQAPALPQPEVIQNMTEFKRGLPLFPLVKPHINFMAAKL

HEK293 [9] = test: optical interference in Abeta FP readout, dose response, artefact control for IDE activator project, biochemical, fluorescence polarization (AID 588442); type: functional, cell-based; conditions: Homo sapiens
Cytochrome P450 1A2 = target: T5, Cytochrome P450 1A2 (Homo sapiens, UniProt P05177);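 also: PubChem cytochrome P450 panel assay, CYP1A2 panel member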
T5 sequence (P05177 whole entry): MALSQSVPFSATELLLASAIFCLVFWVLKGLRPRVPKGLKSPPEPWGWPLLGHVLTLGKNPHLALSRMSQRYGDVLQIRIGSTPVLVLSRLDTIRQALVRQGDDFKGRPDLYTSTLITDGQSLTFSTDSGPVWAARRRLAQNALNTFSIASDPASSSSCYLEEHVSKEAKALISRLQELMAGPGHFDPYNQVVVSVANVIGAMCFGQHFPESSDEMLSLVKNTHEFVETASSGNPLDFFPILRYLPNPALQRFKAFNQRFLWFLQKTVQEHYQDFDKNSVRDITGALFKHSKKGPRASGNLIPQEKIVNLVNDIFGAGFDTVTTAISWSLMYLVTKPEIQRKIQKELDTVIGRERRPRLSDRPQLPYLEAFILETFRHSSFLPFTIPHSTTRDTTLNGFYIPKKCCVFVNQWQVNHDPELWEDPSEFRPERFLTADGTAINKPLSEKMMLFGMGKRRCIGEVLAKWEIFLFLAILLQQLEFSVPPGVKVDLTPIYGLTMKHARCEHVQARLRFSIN

Insulin-degrading enzyme [10] = target: T4, Insulin-degrading enzyme; test: recombinant IDE activation, cell-free – biochemical, fluorescence polarization, counter-screen for IDE activator project, dose response (AID 588681)
HEK293 [11] = test: membrane integrity loss in HEK cells – cell-based, fluorescence, cytotoxicity control for IDE activator project, dose response (AID 588440); type: functional; conditions: Homo sapiens;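 also: cytotoxicity by LDH release measuring loss of membrane integrity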

Sequence of Melanocortin receptor 4 (P32245 whole entry): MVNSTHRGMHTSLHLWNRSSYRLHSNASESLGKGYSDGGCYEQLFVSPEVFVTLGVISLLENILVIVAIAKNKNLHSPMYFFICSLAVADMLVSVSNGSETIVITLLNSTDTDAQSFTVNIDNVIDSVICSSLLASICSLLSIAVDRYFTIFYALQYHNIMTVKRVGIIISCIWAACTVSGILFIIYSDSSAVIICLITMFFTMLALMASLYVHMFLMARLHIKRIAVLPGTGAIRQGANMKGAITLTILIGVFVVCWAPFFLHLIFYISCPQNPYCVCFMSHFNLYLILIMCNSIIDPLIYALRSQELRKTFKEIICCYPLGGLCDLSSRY

Compound	IC50 (Orexin receptor type 2 [1])	IC50 [2]	IC50 (Orexin receptor type 2 [3])	IC50 (CHO-K1)	IC50 [4]	IC50 [5]	also measured
N#Cc1cccn1-c1nccc(-c2cccs2)n1	> 50 µM (inactive)	> 49.7 µM (inactive)	> 88.8 µM (inactive)	> 66.2 µM (inactive)	20.3 µM (inactive)	3.66 µM (active)	
O=C(OCc1cc(=O)n2c(n1)sc1ccccc12)c1cccc(O)c1	> 50 µM (inactive)	37 µM (inactive)	> 88.8 µM (inactive)	> 66.2 µM (inactive)	5.73 µM (active)	5.46 µM (active)	IC50 [6]: 3.87 µM (active)
CC(C)Cc1ccc(C(C)CC2=CCC(CN(C)C)C2=O)cc1 (stereo not drawn)							IC50 [7]: > 64.7 µM (inactive); GI50 (P388/ADR): 1.09 µM (active); GI50 (P388): 2.02 µM (inactive); GI50 (SN12K1): 3.33 µM (inactive); IC50 (Melanocortin receptor 4): 8.78 µM (active)
Cc1ccccc1OC/C(O)=C(\C#N)c1nc2ccccc2[nH]1							EC50 (Insulin-degrading enzyme [8]): > 54.7 µM (inactive); EC50 (HEK293 [9]): > 54.7 µM (inactive); AC50 (Cytochrome P450 1A2): 0.282 µM (inconclusive); EC50 (Insulin-degrading enzyme [10]): > 54.7 µM (inactive); IC50 (HEK293 [11]): > 89.2 µM (inactive)
